In PubChem BioAssay AID1259411 (Chemical Carcinogenesis Research Information System (CCRIS), 2018):
Calls of active or inactive are those of the source. How the calls were made is not given here.

System: rodent carcinogenicity bioassays, tumor incidence
Assay: CCRIS carcinogenicity studies
Method in brief: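 Archive of carcinogenicity, mutagenicity, tumor promotion and tumor inhibition results drawn from journals, NCI reports and other sources, expert-reviewed; covers 1985-2011 and is no longer updated.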

In the case of O=C(O)CC[N+](=O)[O-], the carcinogen call (Species: MOUSE, Strain/Sex: B6C3F1/FEMALE, Route: GAVAGE, Dose: 0, 0.375, 0.75 MG/ANIMAL/DAY FOR 104 WK (STUDY DURATION: 104-105 WK), Dose: 0, 0.375, 0.75 MG/ANIMAL/DAY FOR 104 WK (STUDY DURATION: 104-105 WK)) is reported as “inactive; negative”, the carcinogen call (Species: MOUSE, Strain/Sex: B6C3F1/MALE, Route: GAVAGE, Dose: 0, 0.375, 0.75 MG/ANIMAL/DAY FOR 104 WK (STUDY DURATION: 104-105 WK), Dose: 0, 0.375, 0.75 MG/ANIMAL/DAY FOR 104 WK (STUDY DURATION: 104-105 WK)) is reported as “inactive; negative” and the carcinogen call (Species: RAT, Strain/Sex: F344/FEMALE, Route: GAVAGE, Dose: 0, 0.6, 1.2 MG/ANIMAL/DAY FOR 110 WK (STUDY DURATION: 111 WK), Dose: 0, 0.6, 1.2 MG/ANIMAL/DAY FOR 110 WK (STUDY DURATION: 111 WK)) is reported as “inactive; negative”. For the same compound, the carcinogen call (Species: RAT, Strain/Sex: F344/MALE, Route: GAVAGE, Dose: 0, 0.425, 0.85 MG/ANIMAL/DAY FOR 110 WK (STUDY DURATION: 111 WK), Dose: 0, 0.425, 0.85 MG/ANIMAL/DAY FOR 110 WK (STUDY DURATION: 111 WK), Tumor Site: Type of Lesion: LIVER: HEPATOCELLULAR NEOPLASM, PANCREAS: ISLET CELL ADENOMA) was “equivocal”.

For O=[N+]([O-])c1ccc(Oc2ccc(Cl)cc2Cl)cc1, the carcinogen call (Species: MOUSE, Strain/Sex: B6C3F1/FEMALE, Route: ORAL, Dose: 0, 2348, 4696 PPM IN DIET, TWA, Dose: 0, 2348, 4696 PPM IN DIET, TWA, Tumor Site: Type of Lesion: LIVER: HEPATOCELLULAR CARCINOMA OR NEOPLASTIC NODULE) was “active; positive”, the carcinogen call (Species: MOUSE, Strain/Sex: B6C3F1/FEMALE, Route: ORAL, Dose: 0, 3000, 6000 PPM IN DIET, Dose: 0, 3000, 6000 PPM IN DIET, Tumor Site: Type of Lesion: LIVER: HEPATOCELLULAR ADENOMA OR CARCINOMA) was “active; positive” and the carcinogen call (Species: MOUSE, Strain/Sex: B6C3F1/MALE, Route: ORAL, Dose: 0, 2348, 4696 PPM IN DIET, TWA, Dose: 0, 2348, 4696 PPM IN DIET, TWA, Tumor Site: Type of Lesion: LIVER: HEPATOCELLULAR CARCINOMA) was “active; positive”. For the same compound, the carcinogen call (Species: MOUSE, Strain/Sex: B6C3F1/MALE, Route: ORAL, Dose: 0, 3000, 6000 PPM IN DIET, Dose: 0, 3000, 6000 PPM IN DIET, Tumor Site: Type of Lesion: LIVER: HEPATOCELLULAR ADENOMA OR CARCINOMA) was “active; positive”, the carcinogen call (Species: RAT, Strain/Sex: F344/FEMALE, Route: ORAL, Dose: 0, 3000, 6000 PPM IN DIET, Dose: 0, 3000, 6000 PPM IN DIET) was “inactive; negative” and the carcinogen call (Species: RAT, Strain/Sex: F344/MALE, Route: ORAL, Dose: 0, 3000, 6000 PPM IN DIET, Dose: 0, 3000, 6000 PPM IN DIET) was “inactive; negative”. The carcinogen call (Species: RAT, Strain/Sex: OSBORNE-MENDEL/FEMALE, Route: ORAL, Dose: 0, 1300, 2600 PPM IN DIET, TWA, Dose: 0, 1300, 2600 PPM IN DIET, TWA, Tumor Site: Type of Lesion: PANCREAS: CARCINOMA) was “active; positive”.

CC(C)(C)O was tested, and the carcinogen call (Species: MOUSE, Strain/Sex: B6C3F1/FEMALE, Route: ORAL, Dose: 0, 5, 10, 20 MG/ML IN DRINKING WATER FOR 103 WK (STUDY DURATION: 103 WK), Dose: 0, 5, 10, 20 MG/ML IN DRINKING WATER FOR 103 WK (STUDY DURATION: 103 WK), Tumor Site: Type of Lesion: THYROID GLAND: FOLLICULAR CELL ADENOMA) was “active; positive”, the carcinogen call (Species: MOUSE, Strain/Sex: B6C3F1/MALE, Route: ORAL, Dose: 0, 5, 10, 20 MG/ML IN DRINKING WATER FOR 103 WK (STUDY DURATION: 103 WK), Dose: 0, 5, 10, 20 MG/ML IN DRINKING WATER FOR 103 WK (STUDY DURATION: 103 WK), Tumor Site: Type of Lesion: THYROID GLAND: FOLLICULAR CELL ADENOMA OR CARCINOMA) was “equivocal” and the carcinogen call (Species: RAT, Strain/Sex: F344/FEMALE, Route: ORAL, Dose: 0, 2.5, 5, 10 MG/ML IN DRINKING WATER FOR 103 WK (STUDY DURATION: 103 WK), Dose: 0, 2.5, 5, 10 MG/ML IN DRINKING WATER FOR 103 WK (STUDY DURATION: 103 WK)) was “inactive; negative”. For the same compound, the carcinogen call (Species: RAT, Strain/Sex: F344/MALE, Route: ORAL, Dose: 0, 1.25, 2.5, 5 MG/ML IN DRINKING WATER FOR 103 WK (STUDY DURATION: 103 WK), Dose: 0, 1.25, 2.5, 5 MG/ML IN DRINKING WATER FOR 103 WK (STUDY DURATION: 103 WK), Tumor Site: Type of Lesion: KIDNEY (RENAL TUBULE): ADENOMA OR CARCINOMA) was “active; positive”.

In the case of Cc1cc2c(c3ccc4ccccc4c13)[C@@H]1O[C@@H]1[C@H](O)[C@H]2O, the carcinogen call (Species: MOUSE, Strain/Sex: ICR/FEMALE, Route: INTRAPERITONEAL, Dose: 8 NMOL/5 µL DMSO ON DAY 1, 16 NMOL/10 µL ON DAY 8, AND 32 NMOL/20 µL ON DAY 15 OF AGE (STUDY DURATION: 35 WK)) is reported as “inactive; negative” and the carcinogen call (Species: MOUSE, Strain/Sex: ICR/MALE, Route: INTRAPERITONEAL, Dose: 8 NMOL/5 µL DMSO ON DAY 1, 16 NMOL/10 µL ON DAY 8, AND 32 NMOL/20 µL ON DAY 15 OF AGE (STUDY DURATION: 35 WK), Tumor Site: Type of Lesion: LUNG: TUMORS) is reported as “active; positive”.

For CCc1cc2ccccc2c2ccc3c(c12)[C@@H]1O[C@@H]1[C@H](O)[C@H]3O, the carcinogen call (Species: MOUSE, Strain/Sex: ICR/FEMALE, Route: INTRAPERITONEAL, Dose: 0, 8 NMOL IN 5 µL DMSO ON D 1, 16 NMOL IN 10 µL ON D 8 AND 32 NMOL IN 20 µL ON D 15 OF LIFE (STUDY DURATION: 35 WK)) was “inactive; negative” and the carcinogen call (Species: MOUSE, Strain/Sex: ICR/MALE, Route: INTRAPERITONEAL, Dose: 0, 8 NMOL IN 5 µL DMSO ON D 1, 16 NMOL IN 10 µL ON D 8 AND 32 NMOL IN 20 µL ON D 15 OF LIFE (STUDY DURATION: 35 WK)) was “inactive; negative”.

C=C(C#N)C(=O)O was tested, and the carcinogen call (Species: RAT, Strain/Sex: F344/FEMALE, Route: SUBCUTANEOUS IMPLANT, Dose: 0.12 G INJECTED INTO 2 SITES ON THE LATERAL ABDOMEN, 2 SITES ON THE LATERAL CHEST REGION AND 1 SITE ON THE BACK (STUDY D, Tumor Site: Type of Lesion: IMPLANT SITE: MALIGNANT HISTIOCYTOMA) was “active; positive”.

In the case of Nc1nc2c(ncn2[C@@H]2C[C@H](CO)[C@H]2CO)c(=O)[nH]1, the carcinogen call (Species: Mouse, Strain/Sex: CD-1/Female (60/Group), Route: Oral, Dose: 0, 30, 150, 750 mg/kg in diet for 104 wk, Dose: 0, 30, 150, 750 mg/kg in diet for 104 wk, Tumor Site: Type of Lesion: Upper digestive tract: squamous cell papilloma and carcinoma (0/60 and 0/60 in controls vs 0/60, 3/60, and 4/60, respect) is reported as “active; positive” and the carcinogen call (Species: Mouse, Strain/Sex: CD-1/Male (60/Group), Route: Oral, Dose: 0, 10, 50, 250 mg/kg in diet for 104 wk, Dose: 0, 10, 50, 250 mg/kg in diet for 104 wk, Tumor Site: Type of Lesion: Upper digestive tract: squamous cell papilloma or carcinoma (0/60 and 0/60 in controls vs 0/60, 3/60, and 4/60, respecti) is reported as “active; positive”.

In the case of ClC[C@H]1O[C@@H]1Cl, the carcinogen call (Species: MOUSE, Strain/Sex: ICR/FEMALE, Route: DERMAL, Dose: 10 MG IN 0.1 ML ACETONE 3/WK FOR LIFE, Tumor Site: Type of Lesion: INTEGUMENTARY SYSTEM (SKIN): PAPILLOMA, SQUAMOUS CELL CARCINOMA) is reported as “active; positive” and the carcinogen call (Species: MOUSE, Strain/Sex: ICR/FEMALE, Route: SUBCUTANEOUS, Dose: 500 UG IN 0.05 ML TRICAPRYLIN 1/WK FOR LIFE, Tumor Site: Type of Lesion: INJECTION SITE: FIBROSARCOMA) is reported as “active; positive”.

Nc1cc2c3ccccc3ccc2c2ccccc12 was tested, and the carcinogen call (Species: MOUSE, Strain/Sex: SWISS/FEMALE, Route: INTRAPERITONEAL, Dose: 0, 100 NMOL (TOTAL DOSE) 1/7, 2/7 AND 4/7 ADMINISTERED ON DAYS 1, 8 AND 15 OF LIFE RESPECTIVELY (STUDY DURATION: 32 WK)) was “inactive; negative” and the carcinogen call (Species: MOUSE, Strain/Sex: SWISS/MALE, Route: INTRAPERITONEAL, Dose: 0, 100 NMOL (TOTAL DOSE) 1/7, 2/7 AND 4/7 ADMINISTERED ON DAYS 1, 8 AND 15 OF LIFE RESPECTIVELY (STUDY DURATION: 32 WK)) was “inactive; negative”.

For C[C@@H]1CCC[C@H](C)N1CCC[C@@](O)(c1ccccc1)c1ccccn1, the carcinogen call (Species: MOUSE, Strain/Sex: B6C3F1/FEMALE, Route: ORAL, Dose: 0, 10, 25, 50 MG/KG/D IN DIET FOR 104 WK (STUDY DURATION: 104 WK), Dose: 0, 10, 25, 50 MG/KG/D IN DIET FOR 104 WK (STUDY DURATION: 104 WK)) was “inactive; negative”, the carcinogen call (Species: MOUSE, Strain/Sex: B6C3F1/MALE, Route: ORAL, Dose: 0, 10, 25, 50 MG/KG/D IN DIET FOR 104 WK (STUDY DURATION: 104 WK), Dose: 0, 10, 25, 50 MG/KG/D IN DIET FOR 104 WK (STUDY DURATION: 104 WK)) was “inactive; negative” and the carcinogen call (Species: RAT, Strain/Sex: WISTAR/FEMALE, Route: ORAL, Dose: 0, 10, 25, 50 MG/KG/D IN DIET FOR 104 WK (STUDY DURATION: 104 WK), Dose: 0, 10, 25, 50 MG/KG/D IN DIET FOR 104 WK (STUDY DURATION: 104 WK)) was “inactive; negative”. For the same compound, the carcinogen call (Species: RAT, Strain/Sex: WISTAR/MALE, Route: ORAL, Dose: 0, 10, 25, 50 MG/KG/D IN DIET FOR 104 WK (STUDY DURATION: 104 WK), Dose: 0, 10, 25, 50 MG/KG/D IN DIET FOR 104 WK (STUDY DURATION: 104 WK)) was “inactive; negative”.
